The text below walks through data of patent publication US20130018020A1, “INHIBITOR FOR MELANIN, AND COSMETIC COMPOSITION CONTAINING SAME” (AMOREPACIFIC CORPORATION, priority 2010, published 2013).

The test concerns Human melanoma HM3KO cells. As to the kind of experiment: Effect on inhibition of melanin production. It is filed as cell-based. The conditions noted are these: 10 ppm of each test material, absorbance at 500 nm vs DMSO control. The method, then:
Human melanoma HM3KO cells (Y. Funasaka, Department of dermatology, Kobe university school of medicine, 5-1 Kusunoki-cho 7-chrome, Chuo-ku, Kobe 650, Japan) were cultured in 10% FBS-containing MEM (Minimum Essential Medium) under the conditions of 37° C. and 5% CO2. The cultured cells were plated on T75 flasks at a density of 3×10^5 cells per flask and allowed to stand overnight until the cells adhered to the flask wall. After the cells were confirmed to adhere to the flask wall, the medium was replaced with a fresh medium containing 10 ppm of each of the test materials shown in Table 1 below. In a control group, a DMSO-containing medium was used. In this manner, the medium was replaced with a fresh medium containing each test material once at intervals of 2-3 days, while the cells were cultured until the flask was filled with the cells. When the cells completely grew, the cells were collected, and the color thereof was compared between the control group and each of the groups treated with the test material. In addition, after the culture medium has been removed and the cells were washed with PBS, the cells were dissolved in 1N sodium hydroxide, and the absorbance at 500 nm was measured. Based on the measurements, the inhibition (%) of melanin production was calculated using the following equation 1, and the results of the calculation are shown in Table 1 below. Inhibition (%) of melanin production=[…] [Equation 1]
On to `O=c1cc(CO)occ1O` [Kojic acid], for which testing at 10 ppm gave an inhibition of 28.3%.

Turning to `NC(=O)c1cccnc1` [Nicotinic acid amide], testing at 10 ppm gave an inhibition of 29.5%.

`NC[C@H]1CC[C@H](C(=O)O)CC1` [Tranexamic acid]: at 10 ppm the inhibition was 32.2%.
